Results taken from paper PMC9057582, “HIF inhibitor 32-134D eradicates murine hepatocellular carcinoma in combination with anti-PD1 therapy” (The Journal of Clinical Investigation, 2022).

How the values were obtained:
Hepa1-6 HCC tumors = assay: Hepa1-6 tumor growth and eradication in syngeneic C57L mice; format: in vivo
Description: To test whether 32-134D inhibits HCC growth in an immunocompetent mouse model, we injected Hepa1-6 HCC cells into the flank of syngeneic C57L mice ([54]). When tumors became palpable (treatment day 1), mice received intraperitoneal injections of 32-134D (40 mg/kg/day) versus vehicle control, or anti-PD1 antibody versus IgG2a isotype control (200 μg on days 1, 4, 7, 10, 13, and 16), or both 32-134D and anti-PD1. Tumors grew very rapidly in all mice treated with vehicle or IgG2a, necessitating euthanasia on or before day 24 (Figure 4, A and C). Tumors regressed in 5 out of 12 mice treated with anti-PD1, but 2 tumors recurred after the last antibody treatment (on day 16) for a tumor eradication rate of only 25% (Figure 4D). […] Thus, addition of 32-134D increased the percentage of mice with a complete response to anti-PD1 immune checkpoint blockade from 25% to 67% (Figure 4F).
Figure 4 Effect of anti-PD1 and 32-134D on Hepa1-6 tumor growth in syngeneic mice. […]
Female nude mice (NCI Athymic NCr-nu/nu) and male C57L mice were purchased from Charles River and The Jackson Laboratory, respectively. Hep3B (8 × 10^6) and Hepa1-6 (1 × 10^7) cells were resuspended in PBS and Matrigel (1:1, vol/vol) and implanted subcutaneously in 6- to 8-week-old mice, and tumor volume was calculated as V = abc × 0.52. […]

[1] = tested on: Hepa1-6 tumor immune microenvironment; assay: Flow cytometry of immune cell populations in Hepa1-6 tumors; format: in vivo, C57L mice; conditions: 40 mg/kg daily ip, 8 days
Description: To analyze the mechanism by which 32-134D increased the response to anti-PD1 therapy, Hepa1-6 tumor–bearing mice were treated with 32-134D or vehicle, and immune cell populations in well-established 200-mm^3 tumors were analyzed by flow cytometry (Supplemental Figure 8). […] The pivotal role of CD8^+ T cells and NK cells in antitumor immunity is underscored by the fact that expression of CD8A and CD8B mRNA as well as KLRK1 and KLRB1 mRNA (encoding the human homologs of CD314 and NK1.1, respectively) in HCC is associated with patient survival (P < 0.05; Supplemental Table 2).
Figure 5 Effect of 32-134D on the tumor immune microenvironment. (A–H) C57L mice were injected with Hepa1-6 HCC cells subcutaneously and when tumors reached a volume of 200 mm^3, the mice were treated with vehicle or 32-134D (40 mg/kg) by daily intraperitoneal injection for 8 days. Single-cell suspensions prepared from each tumor were analyzed by flow cytometry using fluorescent antibodies against the indicated cell surface proteins. The percentage of cells positive for the indicated markers is shown (mean ± SEM, n = 6). *P < 0.05 (Mann-Whitney test). M-MDSCs and G-MDSCs, monocytic and granulocytic myeloid-derived suppressor cells; TAMs, tumor-associated macrophages.
Hepa1-6 tumors were digested with collagenase (1 mg/mL) at 37°C for 30 minutes and the resulting single-cell suspension was passed through a 70-μm cell strainer and washed twice with cold PBS. Cells were resuspended in FC buffer for subsequent flow cytometry analysis. Cells were stained with at least 2 antibodies (see Supplemental Table 6) to capture different immune cell populations. G-MDSCs: Alexa Fluor 405–conjugated anti-CD11b and FITC-conjugated anti-Ly6G; M-MDSCs: Alexa Fluor 405–conjugated anti-CD11b and FITC-conjugated anti-Ly6C; TAMs: Alexa Fluor 405–conjugated anti-CD11b and allophycocyanin-conjugated (APC-conjugated) anti-F4/80; dendritic cells: Alexa Fluor 405–conjugated anti-CD11b, FITC-conjugated anti-CD11c, and APC-conjugated anti-F4/80; cytotoxic NK cells: FITC-conjugated anti-CD3, APC-conjugated anti-NK1.1, and Alexa Fluor 405–conjugated anti-CD314; effector T cells: phycoerythrin-conjugated (PE-conjugated) anti-CD8A and Alexa Fluor 405–conjugated anti–IFN-γ; activated T cells: PE-conjugated anti-CD8A, FITC-conjugated anti-CD69, and APC-conjugated anti-CD44; regulatory T cells: APC-conjugated anti-CD4, FITC-conjugated anti-CD25, and PE-conjugated anti-FOXP3. Live cells were gated using side-scatter and forward-scatter plots, and data were acquired using FACSDiva software (Becton Dickinson). Cell populations were gated using unstained control and single stained cell samples. Data analysis was performed using FlowJo software.
Supplemental Figure 8. Effect of 32-134D on Hepa1-6 tumor immune cell microenvironment. […]

Brc1ccc2c(-c3csc(-c4c[nH]c5c(Br)cccc45)n3)c[nH]c2c1 [Compound 32-134D]
tumor growth (Hepa1-6 HCC tumors; 40 mg/kg/day ip): inhibition of tumor growth in all mice
mice with tumor eradication (Hepa1-6 HCC tumors; 12 mice per group): 4 of 12
increase in the ratio of effector T cells to TAMs [1]: 3 fold
percentage of regulatory T cells, G-MDSCs, and dendritic cells in tumors [1]: not significantly affected
percentage of CD8+IFN-γ+ effector T cells, CD8+CD44+CD69+ activated T cells, and NK1.1+CD3–CD314+ activated NK cells in tumors ([1]; P < 0.05): significantly increased
percentage of intratumoral CD11b+F4/80+ TAMs and CD11b+Ly6C+ M-MDSCs ([1]; P < 0.05): decreased percentage
